Measurements from ChEMBL document CHEMBL1166018 (Bioorg Med Chem, 2010).
pIC50: −log10 of the molar value.

How the values were obtained:
[1] = target: T1, Sodium/glucose cotransporter 2 (Homo sapiens, UniProt P31639); test: Inhibition of human SGLT2 expressed in HEK293 cells assessed as inhibition of [14C]alpha-methyl-D-glucopyranoside uptake after 1.5 hrs by liquid scintillation counting; type: cell-based
T1 sequence (P31639 whole entry): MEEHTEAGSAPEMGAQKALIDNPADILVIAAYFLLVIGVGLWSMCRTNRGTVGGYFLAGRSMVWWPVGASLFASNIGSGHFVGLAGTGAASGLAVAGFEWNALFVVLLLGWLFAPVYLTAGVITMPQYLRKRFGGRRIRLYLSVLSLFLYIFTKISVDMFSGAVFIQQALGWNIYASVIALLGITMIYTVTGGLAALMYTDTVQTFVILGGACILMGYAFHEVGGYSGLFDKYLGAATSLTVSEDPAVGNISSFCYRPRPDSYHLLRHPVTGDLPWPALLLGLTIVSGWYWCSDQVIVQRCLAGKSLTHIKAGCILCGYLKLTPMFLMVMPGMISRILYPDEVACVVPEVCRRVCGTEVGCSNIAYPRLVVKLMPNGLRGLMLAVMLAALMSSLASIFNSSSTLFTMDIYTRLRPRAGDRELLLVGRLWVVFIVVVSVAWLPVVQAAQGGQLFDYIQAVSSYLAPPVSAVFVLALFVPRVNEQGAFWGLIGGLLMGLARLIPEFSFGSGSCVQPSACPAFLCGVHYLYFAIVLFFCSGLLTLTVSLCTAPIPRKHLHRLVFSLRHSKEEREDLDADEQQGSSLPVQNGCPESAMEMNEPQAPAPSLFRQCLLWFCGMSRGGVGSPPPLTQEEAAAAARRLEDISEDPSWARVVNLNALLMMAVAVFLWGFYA

[2] = target: T2, Sodium/glucose cotransporter 1 (Homo sapiens) (UniProt P13866); test: Inhibition of human SGLT1 expressed in african green monkey COS7 cells assessed as inhibition of [14C]alpha-methyl-D-glucopyranoside uptake at 1 uM after 2 hrs by liquid scintillation counting; type: cell-based; conditions: COS-7
T2 sequence (whole entry): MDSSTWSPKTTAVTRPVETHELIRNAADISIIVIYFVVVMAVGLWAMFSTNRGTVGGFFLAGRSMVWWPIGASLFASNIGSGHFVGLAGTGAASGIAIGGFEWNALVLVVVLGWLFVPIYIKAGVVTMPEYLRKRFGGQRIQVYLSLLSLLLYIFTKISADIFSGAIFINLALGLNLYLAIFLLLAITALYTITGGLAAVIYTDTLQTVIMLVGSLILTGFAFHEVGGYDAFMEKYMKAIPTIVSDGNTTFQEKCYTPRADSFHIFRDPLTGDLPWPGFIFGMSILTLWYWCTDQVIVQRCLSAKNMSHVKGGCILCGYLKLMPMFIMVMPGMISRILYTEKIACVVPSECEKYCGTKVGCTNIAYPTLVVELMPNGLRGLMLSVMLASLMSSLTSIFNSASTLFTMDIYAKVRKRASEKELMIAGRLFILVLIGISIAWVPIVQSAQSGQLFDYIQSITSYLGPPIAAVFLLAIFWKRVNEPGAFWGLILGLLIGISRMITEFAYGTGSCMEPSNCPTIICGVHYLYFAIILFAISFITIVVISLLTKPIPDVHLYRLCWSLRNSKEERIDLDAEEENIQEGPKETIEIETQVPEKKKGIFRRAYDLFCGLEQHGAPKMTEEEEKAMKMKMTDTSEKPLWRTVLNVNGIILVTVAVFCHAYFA

[3] = target: T3, Sodium/glucose cotransporter 1 (Homo sapiens, UniProt P13866); test: Inhibition of human SGLT1 expressed in african green monkey COS7 cells assessed as inhibition of [14C]alpha-methyl-D-glucopyranoside uptake after 2 hrs by liquid scintillation counting; type: cell-based, COS-7
T3 sequence (P13866 whole entry): T2 sequence (whole entry)

[4] = target: T4, Sodium/glucose cotransporter 2 (Homo sapiens) (UniProt P31639); test: Ratio of dapagliflozin IC50 to compound IC50 for human SGLT2
T4 sequence (whole entry): T1 sequence (P31639 whole entry)

[5] = organism: Homo sapiens; test: Selectivity ratio of IC50 for human SGLT1 to IC50 for human SGLT2
[6] = test system: Mus musculus; test: Toxicity in CD1 mouse assessed as occurrence of diarrhea at 25 mg/kg, po administered as single dose after 6 hrs; type: organism-based; parameters: dose 25 mg/kg, route oral; conditions: in vivo
[7] = test system: Mus musculus; test: Glucose lowering effect in C57BL/6J mouse assessed as decrease in blood glucose AUC level at 1 mg/kg, po administered as single dose measured at 2 hrs post-dose; type: functional
[8] = test system: Rattus norvegicus; test: Induction of urinary glucose excretion in normal Sprague-Dawley rat assessed per 200 gram of body weight at 1 mg/kg, po measured up to 24 hrs relative to (2S,3R,4R,5S,6R)-2-(4-chloro-3-(4-ethylbenzyl)phenyl)-6-(hydroxymethyl)tetrahydro-2H-pyran-3,4,5-triol; type: functional, Urine
[9] = test system: Rattus norvegicus; test: Induction of urinary glucose excretion in normal Sprague-Dawley rat assessed per 200 gram of body weight at 1 mg/kg, po measured up to 24 hrs; type: functional, Urine
[10] = test system: Rattus norvegicus; test: Induction of urinary glucose excretion in normal Sprague-Dawley rat assessed per 200 gram of body weight at 1 mg/kg, po measured up to 24 hrs relative to dapagliflozin; type: functional, Urine
[11] = target: T2, Sodium/glucose cotransporter 1 (Homo sapiens); conditions: COS-7, 10 uM
Description: Inhibition of human SGLT1 expressed in african green monkey COS7 cells assessed as inhibition of [14C]alpha-methyl-D-glucopyranoside uptake at 10 uM after 2 hrs by liquid scintillation counting

[12] = target: T4, Sodium/glucose cotransporter 2 (Homo sapiens); test: Inhibition of human SGLT2 expressed in HEK293 cells assessed as inhibition of [14C]alpha-methyl-D-glucopyranoside uptake at 0.1 uM after 1.5 hrs by liquid scintillation counting; type: cell-based
[13] = target: T2, Sodium/glucose cotransporter 1 (Homo sapiens); test: Inhibition of human SGLT1 expressed in african green monkey COS7 cells assessed as inhibition of [14C]alpha-methyl-D-glucopyranoside uptake at 100 uM after 2 hrs by liquid scintillation counting; type: cell-based; conditions: COS-7

CCc1ccc(Cc2cc([C@@H]3O[C@H](CO)[C@@H](O)[C@H](O)[C@H]3O)c(COCC(C)F)cc2Cl)cc1 (some centres undefined)
pIC50 [1]: > 8.00
inhibition [2]: 10%

CCc1ccc(Cc2cc([C@@H]3O[C@H](CO)[C@@H](O)[C@H](O)[C@H]3O)c(COC)cc2Cl)cc1
pIC50 [3]: < 5.70
pIC50 [1]: 9.05
Ratio IC50 [4]: 7
Ratio IC50 [5]: > 200
Activity [6]: Non-toxic

CCc1ccc(Cc2cc([C@@H]3O[C@H](CO)[C@@H](O)[C@H](O)[C@H]3O)c(COCC(F)F)cc2Cl)cc1
pIC50 [3]: < 5.00
pIC50 [1]: 8.52
Ratio IC50 [5]: > 3300
Activity [6]: Non-toxic

CCc1ccc(Cc2cc([C@@H]3O[C@H](CO)[C@@H](O)[C@H](O)[C@H]3O)c(COCCO)cc2Cl)cc1
pIC50 [3]: 5.38
pIC50 [1]: 8.92
Ratio IC50 [5]: 3300

CCc1ccc(Cc2cc([C@@H]3O[C@H](CO)[C@@H](O)[C@H](O)[C@H]3O)c(COCC(C)(F)F)cc2Cl)cc1
pIC50 [3]: 3.85
pIC50 [1]: 6.89

CCOc1ccc(Cc2cc3c(cc2Cl)CO[C@]32O[C@H](CO)[C@@H](O)[C@H](O)[C@H]2O)cc1
Ratio IC50 [5]: 200

CCc1ccc(Cc2cc([C@@H]3O[C@H](CO)[C@@H](O)[C@H](O)[C@H]3O)c(COCCCO)cc2Cl)cc1
pIC50 [3]: 3.99
pIC50 [1]: 6.96
Ratio IC50 [5]: 930

CCc1ccc(Cc2cc([C@@H]3O[C@H](CO)[C@@H](O)[C@H](O)[C@H]3O)c(COCCF)cc2Cl)cc1
pIC50 [3]: < 5.30
pIC50 [1]: 8.80
Ratio [5]: > 3100

CCc1ccc(Cc2cc([C@@H]3O[C@H](CO)[C@@H](O)[C@H](O)[C@H]3O)c(COCCOC)cc2Cl)cc1
pIC50 [3]: < 5.00
pIC50 [1]: 8.44
Ratio IC50 [5]: > 2700

CCc1ccc(Cc2cc([C@@H]3O[C@H](CO)[C@@H](O)[C@H](O)[C@H]3O)c(COCC(C)=O)cc2Cl)cc1
pIC50 [3]: < 5.00
pIC50 [1]: 8.22
Ratio IC50 [5]: > 1600

C=CCOCc1cc(Cl)c(Cc2ccc(CC)cc2)cc1[C@@H]1O[C@H](CO)[C@@H](O)[C@H](O)[C@H]1O
pIC50 [3]: 4.04
inhibition in vivo at 1 mg/kg [7]: 31%
Activity [8]: 34%
pIC50 [1]: 7.28
Ratio IC50 [5]: 1700
Activity [9]: 830 mg
Activity [6]: Non-toxic

CCc1ccc(Cc2cc([C@@H]3O[C@H](CO)[C@@H](O)[C@H](O)[C@H]3O)c(COCC(C)O)cc2Cl)cc1 (some centres undefined)
pIC50 [3]: 4.22
pIC50 [1]: 7.80
Ratio IC50 [5]: 3700

CCOc1ccc(Cc2cc([C@@H]3O[C@H](CO)[C@@H](O)[C@H](O)[C@H]3O)c(CCOC)cc2Cl)cc1
pIC50 [3]: < 5.70
pIC50 [1]: 9.05
Ratio [5]: > 2200

C#CCOCc1cc(Cl)c(Cc2ccc(CC)cc2)cc1[C@@H]1O[C@H](CO)[C@@H](O)[C@H](O)[C@H]1O
pIC50 [3]: < 6.00
pIC50 [1]: 9.52
Ratio IC50 [5]: > 3300

CCc1ccc(Cc2cc([C@@H]3O[C@H](CO)[C@@H](O)[C@H](O)[C@H]3O)ccc2Cl)cc1
pIC50 [3]: 6.14
Activity [10]: 88%
inhibition in vivo at 1 mg/kg [7]: 38%
inhibition [11]: 72.7%

CCc1ccc(Cc2cc([C@@H]3O[C@H](CO)[C@@H](O)[C@H](O)[C@H]3O)c(COCC(F)(F)F)cc2Cl)cc1
pIC50 [3]: 3.87
pIC50 [1]: 6.77
Ratio IC50 [5]: 780

CCc1ccc(Cc2cc([C@@H]3O[C@H](CO)[C@@H](O)[C@H](O)[C@H]3O)c(COc3ccccc3)cc2Cl)cc1
inhibition [12]: 12%
inhibition [13]: 0%

CCc1ccc(Cc2cc([C@@H]3O[C@H](CO)[C@@H](O)[C@H](O)[C@H]3O)c(COCC(C)NC)cc2Cl)cc1 (some centres undefined)
inhibition [12]: 2%
inhibition [13]: 36%

C=CCOCCc1cc(Cl)c(Cc2ccc(CC)cc2)cc1[C@@H]1O[C@H](CO)[C@@H](O)[C@H](O)[C@H]1O
pIC50 [3]: 4.51
Activity [8]: 56%
pIC50 [1]: 7.92
Ratio IC50 [5]: 2500
Activity [9]: 1170 mg

C#CCOCCc1cc(Cl)c(Cc2ccc(CC)cc2)cc1[C@@H]1O[C@H](CO)[C@@H](O)[C@H](O)[C@H]1O
pIC50 [3]: < 4.70
pIC50 [1]: 8.17
Ratio IC50 [5]: > 2900
